# Tests used:
# Assay type in all cases: cell-based
# [1] = system: Escherichia coli (ATCC25922 strain); experiment: Antimicrobial susceptibility test using the ATP method (dead bacteria ATP / live bacteria ATP ratio); details: E. coli, ABPC 4 μg/mL, LVFX 0.125 μg/mL, FIG. 11
# Description: (§1) In this experiment, Escherichia coli (ATCC25922 strain; hereinafter, referred to as E. coli) and Staphylococcus aureus (ATCC25923; hereinafter, referred to as S. aureus) are used as the bacterial cell. An antimicrobial susceptibility test using the ATP method is carried out for both of these. As antibiotics, ampicillin and levofloxacin (hereinafter, referred to as LVFX) are used. First, the bacterial cells are cultured overnight on an LB agar medium, and the next day, a colony is suspended in a Mueller-Hinton (hereinafter, referred to as MH) medium, thereby preparing a bacterial suspension prepared in 0.5 McFarland. Next, the bacterial suspension diluted 500 times in the MH medium is distributed as much as each 50 μL to the plate to which the MH medium containing the antibiotic whose concentration is twice the final concentration is distributed in advance as much as each 50 μL. The static culture is carried out at 37° C. for a certain period of time, and the bacterial suspension is prepared. For the final concentration of the antibiotic, ABPC is set to 4 μg/mL and LVFX is set to 0.125 μg/mL in a case where E. coli is a measurement target. In a case where S. aureus is a measurement target, ABPC is set to 0.25 μg/mL and LVFX is set to 0.125 μg/mL. The bacterial cells are compared with the bacterial cells cultured in the MH medium having no antibiotic contained therein. The live bacteria ATP is prepared by mixing 2 μL of the ATP eliminating solution with 18 μL of the above-described bacteria culture liquid, and the mixture is left static at room temperature for 30 minutes. Thereafter, 20 μL of the ATP extracting reagent is mixed therewith, and the mixture is left static at room temperature for one minute so as to prepare the live bacteria ATP. The dead bacteria ATP is prepared by adding the bacteria culture liquid onto a filter (membrane pore size 0.22 μm). The filtrate obtained through filtering using centrifugation is used as the dead bacteria ATP. The luminescence reagent is added to the prepared live bacteria ATP or dead bacteria ATP, and is subjected to photon counting for one minute. The obtained luminescence amount (amount of luminescence (a.u.)) is used as an index of the ATP amount. According to the above-described experiment, a luminescence amount ratio between the dead ATP luminescence amount and the live ATP luminescence amount is obtained. FIGS. 11 and 12 illustrate a result obtained by calculating the luminescence amount ratio as an amount ratio between the live bacteria ATP and the dead bacteria ATP.
# [2] = system: Staphylococcus aureus (ATCC25923); experiment: as above; details: S. aureus, ABPC 0.25 μg/mL, LVFX 0.125 μg/mL, FIG. 12
# Description: as §1
# [3] = system: E. coli; experiment: Time-dependent change in live and dead bacteria ATP luminescence amount (Methods (1) to (4))
# Text: Next, a method for measuring ATP derived from the live bacteria and the dead bacteria will be described with reference to FIG. 2. A live bacteria ATP method in Method (1) is used in eliminating ATP5 outside a bacterial cell so as to measure ATP2000 included in the cell membrane of the live bacterium 2 and ATP3000 included in the cell membrane of the dead bacterium 3 having no damage to the cell membrane. A submerged ATP method in Method (2) is used in measuring the dead bacteria 4 having the damaged cell membrane and the free ATP5 in the culture liquid 1 while the bacterial cells of the live bacterium 2 and the dead bacteria 3 and 4 are included. The dead bacterium 4 serves as a measurement target, since a substrate and enzyme of enzyme luciferase reaction which are bioluminescent molecules (to be described later) enter the dead bacterium 4 from a damaged site. […]
# Next, a result example obtained in such a way that E. coli as an example is processed according to Methods (1) to (4) so as to measure an ATP amount will be described with reference to FIGS. 4a and 4b. […] The luciferase oxidizes luciferin which serves as a substrate in the presence of ATP and Mg^2+ inside the bacteria, and a luminescence amount generated at that time is proportional to the ATP amount. Accordingly, bacteria growth is evaluated, based on a change in the luminescence amount.
# In the present embodiment, the luminescence amount is represented by integration of a photon count value of 60 sec, and the unit is defined as the luminescence amount (amount of luminescence (a.u.)). As described above, the luminescence amount and the ATP amount are in a proportional relationship. In a case where the luminescence amount increases, it is determined that the ATP amount increases.
# FIG. 4a illustrates a result obtained by culturing E. coli on the absence of antibiotics. […] If the results in FIGS. 4a and 4b are compared with each other, in FIG. 4a, according to the live bacteria ATP method in Method (1), the luminescence amount increases with the lapse of the culture time until four hours of the culture time. […]
smiles,measurement,setting,value
"CC1(C)S[C@@H]2[C@H](NC(=O)[C@H](N)c3ccccc3)C(=O)N2[C@H]1C(=O)O [ABPC, ampicillin]",time after start of antimicrobial susceptibility culture at which the effect can be determined (ratio dead bacteria ATP/live bacteria ATP = 1),[1],approximately three
same,ratio of the dead bacteria ATP amount/the live bacteria ATP amount as the culture time elapses,"[1]; MH medium, 37° C.",increases
same,time after start of antimicrobial susceptibility culture at which the effect can be determined (ratio dead bacteria ATP/live bacteria ATP = 1),[2],approximately two and a half
same,ratio of the dead bacteria ATP amount/the live bacteria ATP amount as the culture time elapses,"[2]; MH medium, 37° C.",increases
same,luminescence amount according to submerged ATP method (2) to total ATP method (4),"[3]; E. coli cultured in the presence of 8 μg/mL ampicillin, FIG. 4b",increases or does not vary greatly
same,luminescence amount of the live bacteria ATP according to Method (1),"[3]; E. coli cultured in the presence of 8 μg/mL ampicillin, after three hours of culture, FIG. 4b",decreases with the lapse of the culture time
same,action of the antibiotic on growth of live bacteria,"[3]; E. coli, 8 μg/mL ampicillin, during four hours of the culture time",stops the growth of the live bacteria so as to kill the bacteria with the lapse of time

# From patent US10619182B2, “Method, device and system for testing drug sensitivity” (HITACHI, LTD., priority 2014, dated 2020)
